Read-outs that look alike come from different tables or passages of the source.
Legend:
[1] = biological target: T1, AQP1 (Mus musculus, UniProt Q02013); assay: Erythrocyte osmotic water permeability by stopped-flow light scattering, wild type erythrocytes; type: cell-based; details: 100 mM sucrose gradient, 10 °C
T1 construct: endogenous in cells; host or cells: erythrocytes of wild-type CD1 mice
T1 sequence (Q02013 1-269): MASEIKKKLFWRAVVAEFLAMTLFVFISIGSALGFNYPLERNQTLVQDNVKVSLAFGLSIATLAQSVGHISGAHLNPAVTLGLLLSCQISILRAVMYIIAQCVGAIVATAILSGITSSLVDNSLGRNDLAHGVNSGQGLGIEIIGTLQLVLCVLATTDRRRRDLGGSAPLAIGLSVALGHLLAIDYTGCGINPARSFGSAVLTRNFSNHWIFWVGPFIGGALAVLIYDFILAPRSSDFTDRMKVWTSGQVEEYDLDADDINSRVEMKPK
Method: (§1) Erythrocyte urea and water permeabilities were measured by stopped-flow light scattering using a Hi-Tech Sf-51 instrument (Wiltshire, UK). […] Urea permeability and percentage inhibition were computed as described (see, e.g., Levin et al., FASEB J. supra, 2007)). In some experiments, different urea gradients (25-200 mM) were used, or inhibitor was added only to the erythrocyte-containing or urea-containing solutions. In some experiments an outwardly directed urea gradient was used in which erythrocytes were incubated for 30 min with PBS containing specified urea and mixed in the stopped-flow apparatus with PBS. In reversibility experiments, erythrocytes were incubated for 30 min with inhibitor, washed three times to remove inhibitor, and urea transport assayed. Osmotic water permeability was measured using a 100 mM gradient of sucrose.
(§2) Erythrocyte osmotic water permeability was measured by stopped-flow light scattering. […] Life Sci. 52:474-78 (2009)).

[2] = biological target: T2, mouse UT-B (Mus musculus, UniProt Q8VHL0); assay: Stopped-flow light scattering assay of erythrocyte urea transport, mouse erythrocytes; type: cell-based
T2 construct: Screening was performed using mouse erythrocytes, which strongly express UT-B; endogenous in cells; host or cells: erythrocytes in whole blood of wild-type CD1 mice
T2 sequence (Q8VHL0 1-384): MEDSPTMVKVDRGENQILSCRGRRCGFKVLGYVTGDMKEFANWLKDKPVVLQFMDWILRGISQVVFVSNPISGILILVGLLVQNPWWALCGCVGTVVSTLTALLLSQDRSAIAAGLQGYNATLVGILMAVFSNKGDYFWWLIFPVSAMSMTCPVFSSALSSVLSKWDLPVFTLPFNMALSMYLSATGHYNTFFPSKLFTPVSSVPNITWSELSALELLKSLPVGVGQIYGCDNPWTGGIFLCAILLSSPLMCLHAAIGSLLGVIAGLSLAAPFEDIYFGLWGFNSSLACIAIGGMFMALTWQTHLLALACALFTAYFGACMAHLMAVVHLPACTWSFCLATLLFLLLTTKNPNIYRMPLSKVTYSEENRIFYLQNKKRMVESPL
Method: Erythrocyte urea and water permeabilities were measured by stopped-flow light scattering using a Hi-Tech Sf-51 instrument (Wiltshire, UK). For measurement of urea permeability, dilutions of whole blood (mouse or human) in PBS (hematocrit ˜0.5%) were incubated with test compounds for 5 min and then subjected to a 100-mM inwardly directed urea gradient. After an initial osmotic shrinking phase, the kinetics of increasing cell volume caused by urea influx was measured as the time-course of 90° scattered light intensity at 530 nm, with increasing cell volume producing reduced scattered light intensity. Urea permeability and percentage inhibition were computed as described (see, e.g., Levin et al., FASEB J. supra, 2007)). In some experiments, different urea gradients (25-200 mM) were used, or inhibitor was added only to the erythrocyte-containing or urea-containing solutions. In some experiments an outwardly directed urea gradient was used in which erythrocytes were incubated for 30 min with PBS containing specified urea and mixed in the stopped-flow apparatus with PBS. In reversibility experiments, erythrocytes were incubated for 30 min with inhibitor, washed three times to remove inhibitor, and urea transport assayed. Osmotic water permeability was measured using a 100 mM gradient of sucrose.
UT-B inhibition potency was assayed quantitatively by stopped-flow light scattering from the kinetics of urea influx in response to an inwardly directed urea gradient (see Materials and Methods above). Rapid mixing of an erythrocyte suspension with an equal volume of a hyperosmolar, urea-containing solution to give a 100 mM inwardly directly urea gradient produced rapid cell shrinking due to osmotic water efflux, followed by cell swelling as a consequence of urea (and water) influx.
Measurements were done using a Hi-Tech Sf-51 instrument (Wiltshire, UK). Whole blood (mouse or human) was diluted in PBS (hematocrit approximately 0.5%), incubated with inhibitor for 5 min and then subjected to a 100-mM inwardly directed urea gradient. The kinetics of increasing cell volume caused by urea influx was measured as the time-course of 90° scattered light intensity at 530 nm. Urea permeability and percentage inhibition were computed as described (see, e.g., Levin et al., supra 2007).

[3] = tested on: AQP1-null erythrocytes; assay: Erythrocyte osmotic water permeability by stopped-flow light scattering, AQP1-null erythrocytes; type: cell-based, mouse; details: 100 mM sucrose gradient, 10 °C
Method: as §1, §2

[4] = biological target: T3, CFTR (Homo sapiens, UniProt P13569); assay: CFTR chloride conductance by short-circuit current; type: cell-based; details: 10 μM, forskolin-activated
T3 construct: expressed in transfected cells

[5] = biological target: T4, UT-B (Mus musculus, UniProt Q8VHL0); assay: Erythrocyte lysis assay of UT-B inhibition; type: cell-based; set-up: Screening was performed using mouse erythrocytes, which strongly express UT-B; endogenous in cells; host or cells: erythrocytes in whole blood of wild-type CD1 mice; details: read-out: IC50
T4 sequence (Q8VHL0 1-384): T2 sequence (Q8VHL0 1-384)
Method in brief: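 Mouse erythrocytes (expressing UT-B and AQP1) subjected to an outward acetamide gradient; UT-B inhibition blocks acetamide efflux, causing swelling and lysis. Lysis quantified by absorbance at 710 nm within 5 min of hypo-osmolar shock.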

T3 sequence (P13569 whole entry): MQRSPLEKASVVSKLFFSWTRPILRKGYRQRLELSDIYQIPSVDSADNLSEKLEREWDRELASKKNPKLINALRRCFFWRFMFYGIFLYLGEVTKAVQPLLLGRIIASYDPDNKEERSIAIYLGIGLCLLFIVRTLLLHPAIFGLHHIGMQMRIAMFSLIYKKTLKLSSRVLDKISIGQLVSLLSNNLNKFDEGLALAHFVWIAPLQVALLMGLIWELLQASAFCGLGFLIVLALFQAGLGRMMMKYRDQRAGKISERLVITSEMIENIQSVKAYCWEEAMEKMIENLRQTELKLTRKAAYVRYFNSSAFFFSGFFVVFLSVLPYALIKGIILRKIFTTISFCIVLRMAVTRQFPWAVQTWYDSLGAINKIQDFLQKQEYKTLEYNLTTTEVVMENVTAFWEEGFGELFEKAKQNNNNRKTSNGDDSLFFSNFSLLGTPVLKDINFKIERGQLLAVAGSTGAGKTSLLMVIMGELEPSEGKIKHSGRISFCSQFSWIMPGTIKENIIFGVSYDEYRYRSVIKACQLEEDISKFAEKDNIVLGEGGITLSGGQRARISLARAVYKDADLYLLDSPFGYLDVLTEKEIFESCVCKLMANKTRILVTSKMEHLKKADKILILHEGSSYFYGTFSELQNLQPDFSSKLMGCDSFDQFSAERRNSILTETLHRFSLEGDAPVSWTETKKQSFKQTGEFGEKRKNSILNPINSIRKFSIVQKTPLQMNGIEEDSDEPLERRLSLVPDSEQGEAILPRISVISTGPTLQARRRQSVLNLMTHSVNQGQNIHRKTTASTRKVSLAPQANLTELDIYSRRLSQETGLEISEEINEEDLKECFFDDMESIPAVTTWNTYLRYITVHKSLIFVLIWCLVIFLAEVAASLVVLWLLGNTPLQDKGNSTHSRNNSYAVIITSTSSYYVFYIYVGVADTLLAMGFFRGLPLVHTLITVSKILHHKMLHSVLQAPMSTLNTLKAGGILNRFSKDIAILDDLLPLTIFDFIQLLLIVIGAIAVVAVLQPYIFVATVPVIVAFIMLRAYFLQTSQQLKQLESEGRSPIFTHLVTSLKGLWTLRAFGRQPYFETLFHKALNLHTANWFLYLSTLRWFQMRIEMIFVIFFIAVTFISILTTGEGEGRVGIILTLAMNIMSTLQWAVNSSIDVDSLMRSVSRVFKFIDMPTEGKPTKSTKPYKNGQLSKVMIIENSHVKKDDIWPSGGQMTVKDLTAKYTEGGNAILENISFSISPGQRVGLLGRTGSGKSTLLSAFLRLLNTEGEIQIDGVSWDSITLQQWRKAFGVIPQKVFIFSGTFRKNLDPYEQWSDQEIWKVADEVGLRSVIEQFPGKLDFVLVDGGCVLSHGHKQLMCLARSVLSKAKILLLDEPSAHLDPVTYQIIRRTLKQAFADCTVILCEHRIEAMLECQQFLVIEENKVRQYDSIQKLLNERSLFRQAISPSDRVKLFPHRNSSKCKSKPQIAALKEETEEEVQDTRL

SMILES: CCc1ccc(S(=O)(=O)c2nnn3c2nc(NCc2cccs2)c2sccc23)cc1 [UTBinh-14, [3-(4-Ethyl-benzenesulfonyl)-thieno[2,3-e][1,2,3]triazolo[1,5-a]pyrimidin-5-yl]-thiophen-2-ylmethylamine]
- inhibition of water transport in erythrocytes from wild type mice [1]: no significant inhibition
- mechanism of UT-B inhibition vs urea ([2]; 0 and 50 nM, urea gradient varied): competitive
- reduction of urea transport ([2]; 100 nM, mouse erythrocytes): approximately 75%
- reversibility of UT-B inhibition ([2]; 100 nM, washout): reversible
- inhibition at 1 µM ([2]; 1 μM): ~100%
- urea transport in UT-B null erythrocytes ([2]; erythrocytes from UT-B knockout mice): did not inhibit
- IC50 ([2]; erythrocytes pre-loaded with 100 mM urea, mixed with urea-free PBS, read-out: IC50 urea efflux): 26.7 nM
- IC50 ([2]; urea influx, 100 mM inwardly directed urea gradient, read-out: IC50 for mouse UT-B): 25.1 nM
- water transport in AQP1-null erythrocytes [3]: inhibited water transport significantly
- inhibition of CFTR chloride conductance [4]: no significant inhibition
- IC50 ([5]; Table 2, synthesized inhibitors, red blood cell lysis assay (n = 3), single-site saturation model): 11 nM
- IC50 ([5]; erythrocyte lysis assay): 22 nM

From patent US9303042B2, “Triazolothienopyrimidine compound inhibitors of urea transporters and methods of using inhibitors” (The Regents of the University of California, priority 2012, dated 2016)
